Among the data in US12171870B2, “Contact lens packaging solutions” (ALCON INC., priority 2020, dated 2024) are pKa, solubility and Nanoparticle size values, retold here.

The conditions of data set [1]: DMPC phosphate group; cited from earlier work.
Data set [2] is described as follows: Dissolution of DMPC in HCl aqueous solution and nanoparticle formation by stirring. The format is physicochemical. An excerpt:
The present invention is partly based on the discovery that phosphatidylcholine nanoparticles can be formed in an aqueous solution free of an organic solvent by high energy treating the mixture of water insoluble phosphatidylcholine and an aqueous solution having a pH from 1 to 4. The present invention is also partly based on the discovery that at pH lower than pKa, the negative charge of phosphate group in phosphatidylcholine is neutralized through the protonation, which break static stacking in phosphatidylcholine crystal and improve solubility of phosphatidylcholine in an aqueous solution (scheme 1). For example, according to the experimental results of the present application, DMPC is dissolved (pKa 1.86) into 137 mM of HCl aqueous solution up to 10 mg/mL and induced aggregate and formed nanoparticles (˜30 nm) by stirring at room temperature for about 10 hours. After neutralized by NaOH, the nanoparticles were diluted to certain concentration in packing saline.
Method: DMPC was added into 135 mM of HCl and stirred overnight at room temperature to form nanoparticles (4-440 mg/mL). Then, pH was adjusted to 6-8 by 50% NaOH. The solution was diluted by PBS or Saline 14 to get certain concentration (0.1-2 mg/mL).

Some results are limits rather than exact numbers.

As for `CCCCCCCCCCCCCC(=O)OC[C@H](COP(=O)([O-])OCC[N+](C)(C)C)OC(=O)CCCCCCCCCCCCC` [DMPC, Dimyristoylphosphatidylcholine], the pKa in data set [1] is on record as 1.86. Also, in data set [2] (137 mM HCl aqueous solution, read-out: DMPC dissolved into HCl aqueous solution (solubility)), the solubility is at most 10 mg/mL. In addition, the Nanoparticle size in data set [2] (formed by stirring at room temperature for about 10 hours in 137 mM HCl) is on record as about 30 nm.
